Laboratory results from patent US20240392251A1, “CULTURE MEDIUM AND CULTURE METHOD FOR LUNG CANCER EPITHELIAL CELLS, AND APPLICATION THEREOF” (PRECEDO PHARMACEUTICALS CO., LTD, priority 2021, published 2024).
Ends that are not written are not given here.

Columns and labels:
Type in all cases: cell-based, human
[1] = tested on: lung cancer cells (No. B18); assay: Effects of different factors added to basic medium BM on proliferation of primary lung cancer cells; conditions: factor added to BM at the concentrations of Table 3; 12 days of culture; FIGS. 1A-1D
Experimental: (§1) Extracellular matrix gel (Matrigel®) (manufactured by Corning) was diluted with serum-free DMEM/F12 medium at a ratio of 1:100 to prepare an extracellular matrix diluent. The extracellular matrix diluent was added to a 48-well culture plate with 500 μl/well to completely cover the bottom of the wells of the culture plate. The culture plate was let stand for 1 hour in a 37° C. incubator. After 1 hour, the extracellular matrix diluent was removed to provide a Matrigel-coated plate.
Preparation of basic medium (abbreviated as BM): BM was prepared by adding 0.2 vol. % of Primocin (purchased from Invivogen, with a concentration of 50 mg/ml) to the commercial DMEM/F-12 medium to provide a final concentration of 100 μg/ml.
Next, different kinds and concentrations of additive factors (Table 3) were added to the basic medium (BM), so as to prepare culture mediums for lung cancer epithelial cells containing different additive components.
The culture mediums with different components were added at a volume of 500 μl/well to 48-well plates which were coated with extracellular matrix gel (Matrigel). Lung cancer cells (No. B18) isolated from lung cancer tissues according to the same method as described in Example 1 were inoculated at a cell density of 2×10^4 cells/cm^2 in the above-mentioned 48-well culture plates which were coated with Matrigel. After surface disinfection, the plates were placed in a 37° C., 5% CO2 incubator (purchased from Thermo Fisher), and the same number of freshly isolated lung cancer tumor cells (No. B18) were cultured under different medium formulations. The culture mediums were replaced every 4 days after the start of culture. After 12 days of culture, cell counts were performed. The basic medium (BM) without addition of any additive factor was used as a control. The ordinate in the figures represents the ratio of the number of cells obtained after culture in different mediums to the number of cells obtained after culture in basic medium BM.

[2] = tested on: lung cancer epithelial cells (Sample No. B26); assay: Effects of different concentrations of the additive factors on proliferation of primary lung cancer cells; conditions: added to No. 8 medium lacking the factor; cell number ratio to Blank Control; FIGS. 3A-3H
Experimental: as §1, with “(Matrigel®)” for “(Matrigel®) (manufactured by Corning)”, “200” for “500”
No. 8 culture medium for primary lung cancer epithelial cells was prepared.
Lung cancer epithelial cells derived from cancer tissues were isolated from the cancer tissue of a lung cancer patient (Sample No. B26) using the same method as in Example 1. Next, lung cancer epithelial cells derived from cancer tissues were counted with a flow imaging counter (JIMBIO FIL, Jiangsu Jimbio Technology Co., Ltd.) to get the total number of cells. Then, the cells were inoculated at a density of 4×10^4 cells/cm^2 in a 48-well plate which was coated with Matrigel®. […] of the prepared No. 8 culture medium for primary lung cancer epithelial cells was added to the 48-well plate, which was then placed in a 37° C., 5% CO2 incubator (purchased from Thermo Fisher) for culture. When the cells in the culture plate grew to cover about 80% of the bottom area, the supernatant of medium in the 48-well plate was discarded and 500 μl of 0.05% trypsin (purchased from Gibco) was added for cell digestion, which was then incubated at 37° C. for 10 minutes, until the cells were completely digested as observed under a microscope (EVOS M500, Invitrogen); then the digestion was terminated by using 1 ml of DMEM/F12 culture solution containing 5% (v/v) fetal bovine serum (purchased from ExCell Bio), 100 U/ml penicillin (purchased from Corning), and […] streptomycin (purchased from Corning); the resultant was collected into a 15 ml centrifuge tube and centrifuged at 1500 rpm for 4 minutes, and then the supernatant was discarded. The centrifuged cell pellet was resuspended in the basic medium BM and the cells were counted with a flow imaging counter (JIMBIO FIL, Jiangsu Jimbio Technology Co., Ltd.) to get the total number of cells. The obtained cells were used in the following cultivation experiments.
Next, the following 8 formulations of culture medium were prepared for experiments: • Formulation 1: No. 8 culture medium composition without B27 additive; • Formulation 2: No. 8 culture medium composition without fibroblast growth factor; • Formulation 3: No. 8 culture medium composition without transferrin; • Formulation 4: No. 8 culture medium composition without epidermal growth factor; • Formulation 5: No. 8 culture medium composition without Y27632; • Formulation 6: No. 8 culture medium composition without Compound 1; • Formulation 7: No. 8 culture medium composition without A83-01; • Formulation 8: No. 8 culture medium composition without gastrin.
The digested cell suspension was diluted with the above Formulations 1-8 respectively, and then inoculated into a 48-well plate at a volume of 250 μl with 10,000 cells per well.
When using the medium of Formulation 1, to a 48-well plate inoculated with primary cells was added the prepared B27 additive, with 250 μl per well, the final concentrations of B27 additive were 1:800, 1:400, 1:200, 1:100, 1:50, 1:25, respectively; a well of Blank Control (BC) was set using the medium of Formulation 1.
When using the medium of Formulation 2, to a 48-well plate inoculated with primary cells was added the prepared fibroblast growth factor, with 250 μl per well, the final concentrations of fibroblast growth factor were 80 ng/ml, 40 ng/ml, 20 ng/ml, 10 ng/ml, 5 ng/ml, 2.5 ng/ml, respectively; a well of Blank Control (BC) was set using the medium of Formulation 2. […]

[3] = tested on: Hippo pathway related proteins YAP and TAZ in the nucleus; assay: Immunoblotting of Hippo pathway related proteins YAP and TAZ in the nucleus; conditions: B16 cells, FLM with Compound 1 versus FLM without Compound 1, 12 days; FIG. 10
Experimental: Freshly isolated primary lung cancer epithelial cell sample (No. B16) was obtained according to the steps described in Example 1. Then, the primary epithelial cells were inoculated onto a 6-well plate coated with Matrigel™. 3 mL of the culture medium FLM and 3 mL of the culture medium FLM without Compound 1 were respectively added to the wells inoculated with the aforementioned epithelial cells. The plate was placed in a 37° C., 5% CO2 incubator (purchased from Thermo Fisher) for culture. The culture mediums were changed every 4 days during the culture process. After 12 days of cultivation, cells of each group were collected and the […] of Compound 1 on Hippo pathway related proteins YAP and TAZ in the nucleus was detected using conventional immunoblotting method. Yes associated protein (YAP) and its homologous transcriptional co-activator PDZ-binding motif (TAZ) are key effectors in the Hippo pathway that control cell growth and organ size, and their dysregulation may lead to tumor development or hypertrophy. After activation, YAP/TAZ translocate to the nucleus and bind to TEAD transcription factors, promoting cell proliferation or regulated transcription process.

CN1C(=O)C(c2c(F)cccc2F)N(C)c2nc(Nc3ccc(S(N)(=O)=O)cc3)ncc21 (stereo not shown) [Compound 1, 4-((7-(2,6-Difluorophenyl)-5,8-dimethyl-6-oxo-5,6,7,8-tetrahydropteridin-2-yl)amino)benzsulfamide]
effect on cell proliferation (ratio of number of cells to that in basic medium BM) [1]: certain promoting effects on cell proliferation in specific concentration ranges
amount in the culture medium, most preferably [2]: 5 µM
expression of YAP and TAZ proteins in the nucleus [3]: significant increase

Cc1cccc(-c2nn(C(=S)Nc3ccccc3)cc2-c2ccnc3ccccc23)n1 [Compound A83-01, reference compound]
effect on cell proliferation (ratio of number of cells to that in basic medium BM) [1]: certain promoting effects on cell proliferation in specific concentration ranges
amount in the culture medium, most preferably [2]: 0.5 µM

C[C@@H](N)[C@H]1CC[C@H](C(=O)Nc2ccncc2)CC1 [Compound Y27632, reference compound]
effect on cell proliferation (ratio of number of cells to that in basic medium BM) [1]: certain promoting effects on cell proliferation in specific concentration ranges
amount in the culture medium, most preferably [2]: 10 µM

fibroblast growth factor
effect on cell proliferation (ratio of number of cells to that in basic medium BM) [1]: certain promoting effects on cell proliferation in specific concentration ranges
amount in the culture medium, most preferably [2]: 10 ng/mL

gastrin: additive factor from Sino Biological Inc. (QGPWLEEEEEAYGWMDF; ends and bridges not checked; UniProt P01350 76-92, looked up)
effect on cell proliferation (ratio of number of cells to that in basic medium BM) [1]: certain promoting effects on cell proliferation in specific concentration ranges
amount in the culture medium, most preferably [2]: 10 ng/mL

transferrin: additive factor from Sino Biological Inc.
effect on cell proliferation (ratio of number of cells to that in basic medium BM) [1]: certain promoting effects on cell proliferation in specific concentration ranges
amount in the culture medium, most preferably [2]: 20 ng/mL
